Series [1] deals with T1, 5-HT2A receptors (Homo sapiens (Human), UniProt P28223). In words: 5-HT2A receptor antagonist radioligand binding ([3H]ketanserin). The protocol: HEK-293 cells expressing human recombinant 5HT2A receptor were used in the antagonist radioligand binding studies. […] The inhibition constants (Ki) were calculated using the Cheng Prusoff equation. Both sarpogrelate enantiomers were potent inhibitors of [3H]ketanserin binding (Table 1). M1 enantiomers also potently bind to 5HT2A receptors with the Ki values that are approximately one order of magnitude higher than those of sarpogrelate enantiomers (Table 1). There are no meaningful differences between enantiomers in terms of 5-HT2A receptor binding for sarpogrelate or its main metabolite.
T1 sequence (P28223 whole entry): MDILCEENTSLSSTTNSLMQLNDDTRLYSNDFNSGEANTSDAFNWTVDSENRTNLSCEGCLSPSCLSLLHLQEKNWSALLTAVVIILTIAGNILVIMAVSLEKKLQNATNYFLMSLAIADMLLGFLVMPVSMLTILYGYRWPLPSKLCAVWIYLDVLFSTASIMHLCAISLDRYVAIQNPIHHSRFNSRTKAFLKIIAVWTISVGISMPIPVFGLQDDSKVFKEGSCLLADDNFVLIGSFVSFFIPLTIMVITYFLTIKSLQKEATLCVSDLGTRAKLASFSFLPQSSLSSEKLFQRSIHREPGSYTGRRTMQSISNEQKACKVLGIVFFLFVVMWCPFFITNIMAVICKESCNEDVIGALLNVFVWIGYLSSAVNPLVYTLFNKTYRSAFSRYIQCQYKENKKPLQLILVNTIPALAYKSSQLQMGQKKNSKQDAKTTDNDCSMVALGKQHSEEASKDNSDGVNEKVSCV
5HT2a ASSAY: Evaluation of the affinity of compounds for the human 5-HT2A receptor in transfected HEK-293 cells determined in a radioligand binding assay. Cell membrane homogenates (30-50 μg protein) were incubated 15 min at 37° C. with 0.5 nM [3H]ketanserin in the absence or presence of the test compound in a buffer containing 50 mM Tris-HCl (pH 7.4). Nonspecific binding was determined in the presence of 1 μM ketanserin. Following incubation, the samples were filtered rapidly under vacuum through glass fiber filters presoaked with 0.3% PEI and rinsed several times with ice-cold 50 mM Tris-HCl using a 96-sample cell harvester. The filters were dried then counted for radioactivity in a scintillation counter using a scintillation cocktail (WO2005013952A1, EP1500391A1[ab1], incorporated in its entirety by reference).

Series [2] deals with T2, CYP2D6 (Homo sapiens (Human), UniProt P10635). To be noted: cited from earlier work.
T2 sequence (P10635 whole entry): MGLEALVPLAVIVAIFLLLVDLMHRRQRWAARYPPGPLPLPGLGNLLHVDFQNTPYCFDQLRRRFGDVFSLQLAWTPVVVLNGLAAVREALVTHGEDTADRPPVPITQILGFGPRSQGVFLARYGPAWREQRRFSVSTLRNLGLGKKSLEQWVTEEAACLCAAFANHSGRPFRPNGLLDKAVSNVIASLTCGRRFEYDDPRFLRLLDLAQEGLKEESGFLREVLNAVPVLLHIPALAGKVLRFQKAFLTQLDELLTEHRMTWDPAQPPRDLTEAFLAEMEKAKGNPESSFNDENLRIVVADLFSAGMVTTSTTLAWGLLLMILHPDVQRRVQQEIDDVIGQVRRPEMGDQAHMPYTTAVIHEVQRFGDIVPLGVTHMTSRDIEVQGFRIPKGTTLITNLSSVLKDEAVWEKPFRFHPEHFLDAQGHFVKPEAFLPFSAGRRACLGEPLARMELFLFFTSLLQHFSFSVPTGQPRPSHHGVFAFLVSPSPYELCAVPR
Series [3] has as its system hyperactivity in rats after olfactory bulbectomy. Nature of the series: Motor hyperactivity induced by olfactory bulbectomy in rats. In kind it is in vivo, rat. As to the method: In a dedicated set of studies, adult male Sprague-Dawley rats (Charles River, Germany) were subjected to bilateral olfactory bulbectomy performed under ketamine/xylasine anesthesia. The animals were allowed to recover for 14 days following surgery while being handled daily to eliminate any aggressiveness that would otherwise arise. Sham-operated animals were treated in the same way but the olfactory bulbs were left intact. Drugs administration and locomotor activity testing were performed 4 times for each rat with 72 hours break between consecutive test sessions. Prior to each test session, animals were first treated with dextromethorphan (0, 15, 30 or 60 mg/kg. per os) followed 15 min later by sarpogrelate (1, 3 and 10 mg/kg, intraperitoneal) and another 15 min later were placed into Opto-Varimex cages for locomotor activity recording over 30 min. Hyperactivity in rats after olfactory bulbectomy is observed mostly during the early portion of the test sessions. […] Post hoc pairwise comparisons (Sidak's multiple comparisons test) confirmed that significant differences between bulbectomized and sham-operated were observed only in rats that were pretreated prior to the test with vehicle instead of sarpogrelate.

Series [4] can be described thus: Blood glucose levels and oral glucose tolerance in rats. The series is classed as in vivo, rat. The note with it: dextromethorphan administered in combination with sarpogrelate. The protocol:
Test substances were administered to male Wistar (Han) rats (180-280 g at the beginning of the experiments; Janvier Labs) housed in groups under free access to food and water. After overnight food deprivation, the tip of the tail was cut, each rat was weighed, housed individually and left without stress in a quiet room. Approximately 1 hour later, baseline blood glucose was measured from a drop of blood collected from the tail tip, using a commercially available glucose-meter (OneTouch®, Lifescan) and then rats received intraperitoneal injection of sarpogrelate and/or dextromethorphan and 30 min later blood glucose was measured again and rats immediately challenged with glucose at 2 g/kg by oral gavage. Then, blood glucose was measured at 6 time-points until 180 minutes post-glucose challenge.

In series [5] the target is 2D6 (Homo sapiens (Human), UniProt P10635). To be noted: in vivo; cited from earlier work.
Sequence of 2D6 (P10635 whole entry): as above
The subject of series [6] is DOI-induced head shakes. Nature of the series: DOI-induced head shakes in rats. The series is classed as in vivo, rat. To be noted: 0.3, 1 and 3 mg/kg 30 min prior to DOI 3 mg/kg; Sprague-Dawley rats.
For series [7], the target named is T2, CYP2D6. In words: Dextromethorphan O-demethylase activity in human liver microsomes. The series is classed as biochemical. The protocol: Dextromethorphan O-demethylase activity was determined in human liver microsomes. […] The incubation mixtures contained pooled human liver microsomes (final concentrations: 0.25 mg/ml), dextromethorphan, and a NADPH-generating system (1.3 mM NADP+, 3.3 mM glucose 6-phosphate, 3.3 mM MgCl2, and 0.4 U/ml glucose-6-phosphate dehydrogenase). […] All incubations were performed in triplicate, and mean values were used for analysis. […] Both sarpogrelate enantiomers inhibited CYP2D6-mediated dextromethorphan O-demethylation (Table 4).
A general note: Liver microsomes are vesicles of endoplasmic reticulum, rich in cytochrome P450 enzymes.

Series [8] is described as follows: Pharmacokinetic study of sarpogrelate hydrochloride i.v. in rats. To be noted: rat, in vivo; 2 mg/kg intravenous bolus, male Wistar rats, plasma; read-out: Apparent terminal elimination half-life (converted). The series is classed as in vivo, rat. As to the method: Pharmacokinetic study was performed in male Wistar rats equipped with the jugular vein cannulas. Sarpogrelate hydrochloride was formulated in Pharmasolv: PBS buffer (5:95) mixture and administered at the dose of 2 mg/kg intravenously. Blood samples were collected from the jugular vein using heparin as anticoagulant at the scheduled time-points: 5 min, 15 min, 30 min, 1 h, 1.5 h, 2 h, 4 h, and 6 h. An LC-MS/MS bioanalytical method was used for the simultaneous quantification of sarpogrelate and M1 in plasma samples. […] Formation of M1 metabolite of sarpogrelate was rapid as the highest M1 concentrations were measured at the first sampling time points.

In series [9] the target is T1, 5-HT2A receptors. The note with it: compared with ritanserin; cited from earlier work.
Series [10] deals with PCP-induced hyperactivity. In words: Phencyclidine-induced hyperactivity in rats (sarpogrelate and dextromethorphan). In kind it is in vivo, rat.
For series [11] the following is noted: rat, in vivo, cited from earlier work.
Series [12] has as its target T2, CYP2D6. To be noted: microsomes.
Description: Dextromethorphan O-demethylase activity is determined in human liver microsomes. […] The incubation mixtures contain pooled human liver microsomes, dextromethorphan, and a NADPH-generating system. After incubation and centrifugation, the supernatant is diluted up to 100-fold with acetonitrile and then injected into the LC-MS/MS system. All incubations are performed in triplicate, and mean values are used for analysis. The IC50 values (concentration causing a half-maximal inhibition of control specific binding) and Hill coefficients (nH) are determined using methods such as non-linear regression analysis of the competition curves generated with mean replicate values using Hill equation curve fitting.
Series [13] deals with immobility induced by tail suspension. Nature of the series: Tail suspension test in mice. The note with it: ritanserin with effective dose of memantine 10 mg/kg. The series is classed as in vivo, mouse. The protocol:
Tail suspension is one of the classical tests used to study antidepressant drugs and was also applied to evaluate antidepressant-like effects of NMDA receptor channel blockers (Kos T et al., Effect of 5-HT3 receptor antagonist MDL 72222 on behaviors induced by ketamine in rats and mice. European Neuropsychopharmacology (2006) 16:297-310). Mice were transferred from the housing room to the testing area in their home cages and allowed to adapt to the new environment for at least 1 h before drug treatment. Immobility was induced by tail suspension whereby mice were attached individually on a paper adhesive tape, 65 cm above the table top. The tape was placed approximately 1 cm from the tip of the tail. Animals were suspended for 6 min and the duration of immobility was recorded. Mice were considered immobile only when they were completely motionless. […]

As for `COc1cccc(CCc2ccccc2OCC(CN(C)C)OC(=O)CCC(=O)O)c1` (racemic) [Compound 50, 4-((1-(dimethylamino)-3-(2-(3-methoxyphenethyl)phenoxy)propan-2-yl)oxy)-4-oxobutanoic acid], the Ki (commonly the dissociation constant of the complex between target and ligand, obtained from inhibition or displacement) in series [1] (Ki calculated using the Cheng Prusoff equation) is 5.01 nM. Further, the IC50 (usually the midpoint of a concentration-inhibition curve) is 9.6 nM in series [1] (inhibition of [3H]ketanserin binding, HEK-293 cells expressing human recombinant 5HT2A receptor) and 1200 nM in series [7]. Also, the “inhibition type (Dixon plots)” value in [2] is “fit well to all competitive inhibition types”. For the same compound, in [3] (doses with anti-hyperactivity effects), the “activity of sham-operated rats” value is “do not affect activity of sham-operated rats”. In [3] (sarpogrelate 3 or 10 mg/kg i.p., first 15 min of the test), the “time in ambulations of bulbectomized rats” value is “spent less time in ambulations”. Moreover, the “effect of dextromethorphan on blood glucose level” value in [4] was “reversed”. In addition, in [5], the “classification as 2D6 inhibitor” value was “weak 2D6 inhibitor”. For the same compound, the “increase in the substrate AUC” value in series [5] is reported as “less than 2 fold”. Also, in [6], the “frequency of DOI-induced head shakes” value was “reduced”. Besides, the half-life (usually the time in which the quantity being followed falls by half) in series [8] was 1.21 ± 0.159 h. The “affinity for 5-HT2A receptors” value in [9] is listed as “the same affinity as ritanserin”. Moreover, in series [10] (PCP 5 mg/kg s.c., 60-120 min, listed as sarpogrelate racemate), the “ANOVA interaction between dose of sarpogrelate and dose of dextromethorphan” value was “significant interaction”. Moreover, the “activity in PCP-treated rats” value in series [10] (given in the absence of dextromethorphan) was “neither sarpogrelate racemate nor sarpogrelate enantiomers reduced activity”. Besides, in series [10] (in the presence of dextromethorphan, racemate 3 mg/kg, (−) sarpogrelate 1 or 3 mg/kg i.p., PCP 5 mg/kg s.c., 60-120 min), the “motor hyperactivity in PCP-treated rats” value is “inhibited motor hyperactivity in PCP-treated rats”.
Regarding `CN(C)CCO[C@]1(c2ccccc2)C[C@H]2CC[C@]1(C)C2(C)C` [Compound 829, N,N-dimethyl-2-[[(1R,3S,4R)-4,7,7-trimethyl-3-phenyl-3-bicyclo[2.2.1]heptanyl]oxy]ethanamine], the “t(max)” value in [11] (po) is 1.0 h. In series [11], the “AUC (0.96) for H-3 relative to C-14 (times higher)” value is given as 10-15 times; the “concentrations in the hypophysis relative to plasma and brain tissues” value was “at least two times higher”; the “entry into brain tissues” value is given as “intact molecules entered brain tissues from the circulation”; the “ratio of AUC of H-3-labelled compound over C-14” value was 50-60. In addition, in series [11], the “time of peak characteristic of enterohepatic cycle” value is 12 h and the “time of peak concentrations after the final treatment” value is 0.5 h. The “CYP2D6-mediated dextromethorphan O-demethylation” value in [12] is “observed to inhibit”.
As for `Cc1nc2sccn2c(=O)c1CCN1CCC(=C(c2ccc(F)cc2)c2ccc(F)cc2)CC1` [ritanserin], in [13], the “antidepressant-like effects of memantine (immobility time)” value was “reverse antidepressant-like effects of an effective dose of memantine”.

The values above are taken from patent US11478467B2 (priority 2017, dated 2022).
